Numbers after ± are expanded uncertainties.
Columns and labels:
[1] = 101.3 kPa, Liquid; for speed of sound: Linear variable-path acoustic interferometer; for mass density: Pycnometric method
[2] = xn = mol fraction of the nth substance listed; conditions: 101 kPa, Liquid; for speed of sound: Linear variable-path acoustic interferometer; for mass density: Pycnometric method

C1CCOC1 [tetrahydrofuran]
speed of sound ([1]; 303.15 K): 1254 ± 2 m/s
mass density ([1]; 303.15 K): 876.9 ± 0.3 kg/m3
speed of sound ([1]; 313.15 K): 1207 ± 2 m/s
mass density ([1]; 313.15 K): 865.7 ± 0.3 kg/m3
speed of sound ([1]; 323.15 K): 1165 ± 2 m/s
mass density ([1]; 323.15 K): 854.8 ± 0.3 kg/m3

C1CCOC1 [tetrahydrofuran] + CN(C)c1ccccc1
speed of sound ([2]; 303.15 K, x1 = 1): 1254 ± 2 m/s
mass density ([2]; 303.15 K, x1 = 1): 876.9 ± 0.3 kg/m3
speed of sound ([2]; 313.15 K, x1 = 1): 1207 ± 2 m/s
mass density ([2]; 313.15 K, x1 = 1): 865.7 ± 0.3 kg/m3
speed of sound ([2]; 323.15 K, x1 = 1): 1165 ± 2 m/s
mass density ([2]; 323.15 K, x1 = 1): 854.8 ± 0.3 kg/m3

C1CCOC1 [tetrahydrofuran] + CCN(CC)c1ccccc1
speed of sound ([2]; 303.15 K, x1 = 1): 1254 ± 2 m/s
mass density ([2]; 303.15 K, x1 = 1): 876.9 ± 0.3 kg/m3
speed of sound ([2]; 313.15 K, x1 = 1): 1207 ± 2 m/s
mass density ([2]; 313.15 K, x1 = 1): 865.7 ± 0.3 kg/m3
speed of sound ([2]; 323.15 K, x1 = 1): 1165 ± 2 m/s
mass density ([2]; 323.15 K, x1 = 1): 854.8 ± 0.3 kg/m3

CCN(CC)c1ccccc1 [N,N-diethylaniline] + C1CCOC1
speed of sound ([2]; 303.15 K, x2 = 0): 1434 ± 3 m/s
speed of sound ([2]; 303.15 K, x2 = 0.0933): 1428 ± 3 m/s
speed of sound ([2]; 303.15 K, x2 = 0.1907): 1418 ± 3 m/s
speed of sound ([2]; 303.15 K, x2 = 0.2899): 1405 ± 3 m/s
speed of sound ([2]; 303.15 K, x2 = 0.3879): 1390 ± 3 m/s
speed of sound ([2]; 303.15 K, x2 = 0.4892): 1372 ± 3 m/s
speed of sound ([2]; 303.15 K, x2 = 0.5937): 1352 ± 3 m/s
speed of sound ([2]; 303.15 K, x2 = 0.6904): 1331 ± 3 m/s
speed of sound ([2]; 303.15 K, x2 = 0.7948): 1307 ± 2 m/s
speed of sound ([2]; 303.15 K, x2 = 0.8935): 1283 ± 2 m/s
mass density ([2]; 303.15 K, x2 = 0): 926.2 ± 0.3 kg/m3
mass density ([2]; 303.15 K, x2 = 0.0933): 923.9 ± 0.3 kg/m3
mass density ([2]; 303.15 K, x2 = 0.1907): 921.2 ± 0.3 kg/m3
mass density ([2]; 303.15 K, x2 = 0.2899): 918.2 ± 0.3 kg/m3
mass density ([2]; 303.15 K, x2 = 0.3879): 914.9 ± 0.3 kg/m3
mass density ([2]; 303.15 K, x2 = 0.4892): 910.8 ± 0.3 kg/m3
mass density ([2]; 303.15 K, x2 = 0.5937): 906 ± 0.3 kg/m3
mass density ([2]; 303.15 K, x2 = 0.6904): 900.9 ± 0.3 kg/m3
mass density ([2]; 303.15 K, x2 = 0.7948): 894.3 ± 0.3 kg/m3
mass density ([2]; 303.15 K, x2 = 0.8935): 886.9 ± 0.3 kg/m3
speed of sound ([2]; 313.15 K, x2 = 0): 1396 ± 3 m/s
speed of sound ([2]; 313.15 K, x2 = 0.0933): 1390 ± 3 m/s
speed of sound ([2]; 313.15 K, x2 = 0.1907): 1379 ± 3 m/s
speed of sound ([2]; 313.15 K, x2 = 0.2899): 1366 ± 3 m/s
speed of sound ([2]; 313.15 K, x2 = 0.3879): 1351 ± 3 m/s
speed of sound ([2]; 313.15 K, x2 = 0.4892): 1333 ± 3 m/s
speed of sound ([2]; 313.15 K, x2 = 0.5937): 1312 ± 2 m/s
speed of sound ([2]; 313.15 K, x2 = 0.6904): 1291 ± 2 m/s
speed of sound ([2]; 313.15 K, x2 = 0.7948): 1265 ± 2 m/s
speed of sound ([2]; 313.15 K, x2 = 0.8935): 1240 ± 2 m/s
mass density ([2]; 313.15 K, x2 = 0): 917.6 ± 0.3 kg/m3
mass density ([2]; 313.15 K, x2 = 0.0933): 915.7 ± 0.3 kg/m3
mass density ([2]; 313.15 K, x2 = 0.1907): 913.3 ± 0.3 kg/m3
mass density ([2]; 313.15 K, x2 = 0.2899): 910.4 ± 0.3 kg/m3
mass density ([2]; 313.15 K, x2 = 0.3879): 907.1 ± 0.3 kg/m3
mass density ([2]; 313.15 K, x2 = 0.4892): 903.2 ± 0.3 kg/m3
mass density ([2]; 313.15 K, x2 = 0.5937): 898.4 ± 0.3 kg/m3
mass density ([2]; 313.15 K, x2 = 0.6904): 893.1 ± 0.3 kg/m3
mass density ([2]; 313.15 K, x2 = 0.7948): 886.2 ± 0.3 kg/m3
mass density ([2]; 313.15 K, x2 = 0.8935): 877.9 ± 0.3 kg/m3
speed of sound ([2]; 323.15 K, x2 = 0): 1358 ± 3 m/s
speed of sound ([2]; 323.15 K, x2 = 0.0933): 1354 ± 3 m/s
speed of sound ([2]; 323.15 K, x2 = 0.1907): 1343 ± 3 m/s
speed of sound ([2]; 323.15 K, x2 = 0.2899): 1330 ± 3 m/s
speed of sound ([2]; 323.15 K, x2 = 0.3879): 1315 ± 2 m/s
speed of sound ([2]; 323.15 K, x2 = 0.4892): 1296 ± 2 m/s
speed of sound ([2]; 323.15 K, x2 = 0.5937): 1275 ± 2 m/s
speed of sound ([2]; 323.15 K, x2 = 0.6904): 1252 ± 2 m/s
speed of sound ([2]; 323.15 K, x2 = 0.7948): 1226 ± 2 m/s
speed of sound ([2]; 323.15 K, x2 = 0.8935): 1200 ± 2 m/s
mass density ([2]; 323.15 K, x2 = 0): 909.2 ± 0.4 kg/m3
mass density ([2]; 323.15 K, x2 = 0.0933): 907.8 ± 0.4 kg/m3
mass density ([2]; 323.15 K, x2 = 0.1907): 905.7 ± 0.4 kg/m3
mass density ([2]; 323.15 K, x2 = 0.2899): 903 ± 0.4 kg/m3
mass density ([2]; 323.15 K, x2 = 0.3879): 899.6 ± 0.4 kg/m3
mass density ([2]; 323.15 K, x2 = 0.4892): 895.3 ± 0.4 kg/m3
mass density ([2]; 323.15 K, x2 = 0.5937): 890.5 ± 0.4 kg/m3
mass density ([2]; 323.15 K, x2 = 0.6904): 885.1 ± 0.4 kg/m3
mass density ([2]; 323.15 K, x2 = 0.7948): 878.1 ± 0.3 kg/m3
mass density ([2]; 323.15 K, x2 = 0.8935): 869.2 ± 0.3 kg/m3

CN(C)c1ccccc1 [N,N-dimethylaniline] + C1CCOC1
speed of sound ([2]; 303.15 K, x2 = 0): 1468 ± 3 m/s
speed of sound ([2]; 303.15 K, x2 = 0.0683): 1459 ± 3 m/s
speed of sound ([2]; 303.15 K, x2 = 0.1883): 1439 ± 3 m/s
speed of sound ([2]; 303.15 K, x2 = 0.2797): 1423 ± 3 m/s
speed of sound ([2]; 303.15 K, x2 = 0.389): 1403 ± 3 m/s
speed of sound ([2]; 303.15 K, x2 = 0.4723): 1387 ± 3 m/s
speed of sound ([2]; 303.15 K, x2 = 0.5757): 1365 ± 3 m/s
speed of sound ([2]; 303.15 K, x2 = 0.6813): 1340 ± 3 m/s
speed of sound ([2]; 303.15 K, x2 = 0.7866): 1314 ± 2 m/s
speed of sound ([2]; 303.15 K, x2 = 0.8909): 1287 ± 2 m/s
mass density ([2]; 303.15 K, x2 = 0): 948.4 ± 0.3 kg/m3
mass density ([2]; 303.15 K, x2 = 0.0683): 945.8 ± 0.3 kg/m3
mass density ([2]; 303.15 K, x2 = 0.1883): 940.8 ± 0.3 kg/m3
mass density ([2]; 303.15 K, x2 = 0.2797): 936.7 ± 0.3 kg/m3
mass density ([2]; 303.15 K, x2 = 0.389): 931 ± 0.3 kg/m3
mass density ([2]; 303.15 K, x2 = 0.4723): 926.2 ± 0.3 kg/m3
mass density ([2]; 303.15 K, x2 = 0.5757): 919.3 ± 0.3 kg/m3
mass density ([2]; 303.15 K, x2 = 0.6813): 910.9 ± 0.3 kg/m3
mass density ([2]; 303.15 K, x2 = 0.7866): 901.1 ± 0.3 kg/m3
mass density ([2]; 303.15 K, x2 = 0.8909): 890.1 ± 0.3 kg/m3
speed of sound ([2]; 313.15 K, x2 = 0): 1431 ± 3 m/s
speed of sound ([2]; 313.15 K, x2 = 0.0683): 1424 ± 3 m/s
speed of sound ([2]; 313.15 K, x2 = 0.1883): 1408 ± 3 m/s
speed of sound ([2]; 313.15 K, x2 = 0.2797): 1391 ± 3 m/s
speed of sound ([2]; 313.15 K, x2 = 0.389): 1370 ± 3 m/s
speed of sound ([2]; 313.15 K, x2 = 0.4723): 1354 ± 3 m/s
speed of sound ([2]; 313.15 K, x2 = 0.5757): 1331 ± 3 m/s
speed of sound ([2]; 313.15 K, x2 = 0.6813): 1304 ± 2 m/s
speed of sound ([2]; 313.15 K, x2 = 0.7866): 1276 ± 2 m/s
speed of sound ([2]; 313.15 K, x2 = 0.8909): 1246 ± 2 m/s
mass density ([2]; 313.15 K, x2 = 0): 939.8 ± 0.3 kg/m3
mass density ([2]; 313.15 K, x2 = 0.0683): 937.5 ± 0.3 kg/m3
mass density ([2]; 313.15 K, x2 = 0.1883): 932.9 ± 0.3 kg/m3
mass density ([2]; 313.15 K, x2 = 0.2797): 928.6 ± 0.3 kg/m3
mass density ([2]; 313.15 K, x2 = 0.389): 922.9 ± 0.3 kg/m3
mass density ([2]; 313.15 K, x2 = 0.4723): 918 ± 0.3 kg/m3
mass density ([2]; 313.15 K, x2 = 0.5757): 911.1 ± 0.3 kg/m3
mass density ([2]; 313.15 K, x2 = 0.6813): 902.8 ± 0.3 kg/m3
mass density ([2]; 313.15 K, x2 = 0.7866): 893.2 ± 0.3 kg/m3
mass density ([2]; 313.15 K, x2 = 0.8909): 881.4 ± 0.3 kg/m3
speed of sound ([2]; 323.15 K, x2 = 0): 1393 ± 3 m/s
speed of sound ([2]; 323.15 K, x2 = 0.0683): 1391 ± 3 m/s
speed of sound ([2]; 323.15 K, x2 = 0.1883): 1376 ± 3 m/s
speed of sound ([2]; 323.15 K, x2 = 0.2797): 1359 ± 3 m/s
speed of sound ([2]; 323.15 K, x2 = 0.389): 1337 ± 3 m/s
speed of sound ([2]; 323.15 K, x2 = 0.4723): 1319 ± 2 m/s
speed of sound ([2]; 323.15 K, x2 = 0.5757): 1294 ± 2 m/s
speed of sound ([2]; 323.15 K, x2 = 0.6813): 1267 ± 2 m/s
speed of sound ([2]; 323.15 K, x2 = 0.7866): 1238 ± 2 m/s
speed of sound ([2]; 323.15 K, x2 = 0.8909): 1206 ± 2 m/s
mass density ([2]; 323.15 K, x2 = 0): 931.5 ± 0.4 kg/m3
mass density ([2]; 323.15 K, x2 = 0.0683): 929.5 ± 0.4 kg/m3
mass density ([2]; 323.15 K, x2 = 0.1883): 925.2 ± 0.4 kg/m3
mass density ([2]; 323.15 K, x2 = 0.2797): 921.1 ± 0.4 kg/m3
mass density ([2]; 323.15 K, x2 = 0.389): 915.3 ± 0.4 kg/m3
mass density ([2]; 323.15 K, x2 = 0.4723): 910.2 ± 0.4 kg/m3
mass density ([2]; 323.15 K, x2 = 0.5757): 903 ± 0.4 kg/m3
mass density ([2]; 323.15 K, x2 = 0.6813): 894.4 ± 0.4 kg/m3
mass density ([2]; 323.15 K, x2 = 0.7866): 884.2 ± 0.4 kg/m3
mass density ([2]; 323.15 K, x2 = 0.8909): 871.7 ± 0.3 kg/m3

Source: the NIST ThermoML archive (doi:10.1016/j.tca.2011.02.004)
